Experimental data from patent US12534474B2, “Dihydrofuropyridine derivatives as rho-kinase inhibitors” (CHIESI FARMACEUTICI S.P.A., priority 2020, dated 2026).

Assays:
Format in all cases: biochemical
ROCK1 [1] = target: T1, ROCK1 (Homo sapiens, UniProt Q13464); assay: In vitro Rho kinase inhibitory activity assay, ADP-Glo, Method B (ATP 200 μM); details: read-out: Method B ROCK 1 (Ki)
In short: (§1)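 Enzyme preincubated 30 min with compound in 40 mM Tris pH 7.5, 20 mM MgCl2, 0.1 mg/mL BSA, 50 μM DTT, 2.5 μM myelin basic protein, 1% DMSO, 25 °C; 1 h reaction at 200 μM ATP. ADP-Glo luminescence; IC50 from variable-slope sigmoidal fit (0–100% fixed), Ki via Cheng-Prusoff.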

ROCK2 [2] = target: T2, ROCK2 (Homo sapiens, UniProt O75116); assay: as above; details: read-out: Method B ROCK 2 (Ki)
In short: as §1

ROCK1 [3] = target: T1, ROCK1; assay: In vitro Rho kinase inhibitory activity assay, ADP-Glo, Method A (ATP 10 μM); details: read-out: Method A ROCK 1 (Ki)
Protocol: (§2) In Vitro Inhibitory Activity Assay Description (Method A)
(§3) The effectiveness of compounds of the present invention to inhibit Rho kinase activity can be determined in a 10 μL assay containing 40 mM Tris pH7.5, 20 mM MgCl2 0.1 mg/mL BSA, 50 μM DTT and 2.5 μM peptide substrate (Myelin Basic Protein) using an ADP-Glo kit (Promega). Compounds were dissolved in DMSO such that the final concentration of DMSO was 1% in the assay. All reactions/incubations are performed at 25° C. Compound (2 μL) and either Rho kinase 1 or 2 (4 μL) were mixed and incubated for 30 min. Reactions were initiated by addition of ATP (4 μL) such that the final concentration of ATP in the assay was 10 μM. After a 1 hour incubation 10 μL of ADP-Glo Reagent was added and after a further 45 minute incubation 20 μL of Kinase Detection Buffer was added and the mixture incubated for a further 30 minutes. The luminescent signal was measured on a luminometer. […] Compounds were tested in dose-response format and the inhibition of kinase activity was calculated at each concentration of compound. To determine the IC50 (concentration of compound required to inhibit 50% of the enzyme activity) data were fit to a plot of % inhibition vs Log10 compound concentration using a sigmoidal fit with a variable slope and fixing the maximum to 100% and the minimum to 0%. To determine the Ki values the Cheng-Prusoff equation was utilized (Ki=IC50/(1+[S]/Km).

ROCK2 [4] = target: T2, ROCK2; assay: as above; details: read-out: Method A ROCK 2 (Ki)
Protocol: as §2, §3

PKA = PKA (Homo sapiens, UniProt P17612); assay: In vitro inhibitory activity assay for PKA, ADP-Glo, reported as selectivity ratio vs ROCK2; details: Ki for PKA divided by Ki of ROCK2 (Method B)
In short: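 PKA preincubated 30 min with compound (1% DMSO), then reacted 30 min at 25 °C with 10 μM ATP and 260 μM kemptide in Tris pH7.5/MgCl2/BSA/DTT; ADP-Glo luminescence. IC50 from constrained sigmoidal fit, converted to Ki by Cheng-Prusoff; value given as Ki(PKA)/Ki(ROCK2, Method B).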

T2 sequence (O75116 whole entry): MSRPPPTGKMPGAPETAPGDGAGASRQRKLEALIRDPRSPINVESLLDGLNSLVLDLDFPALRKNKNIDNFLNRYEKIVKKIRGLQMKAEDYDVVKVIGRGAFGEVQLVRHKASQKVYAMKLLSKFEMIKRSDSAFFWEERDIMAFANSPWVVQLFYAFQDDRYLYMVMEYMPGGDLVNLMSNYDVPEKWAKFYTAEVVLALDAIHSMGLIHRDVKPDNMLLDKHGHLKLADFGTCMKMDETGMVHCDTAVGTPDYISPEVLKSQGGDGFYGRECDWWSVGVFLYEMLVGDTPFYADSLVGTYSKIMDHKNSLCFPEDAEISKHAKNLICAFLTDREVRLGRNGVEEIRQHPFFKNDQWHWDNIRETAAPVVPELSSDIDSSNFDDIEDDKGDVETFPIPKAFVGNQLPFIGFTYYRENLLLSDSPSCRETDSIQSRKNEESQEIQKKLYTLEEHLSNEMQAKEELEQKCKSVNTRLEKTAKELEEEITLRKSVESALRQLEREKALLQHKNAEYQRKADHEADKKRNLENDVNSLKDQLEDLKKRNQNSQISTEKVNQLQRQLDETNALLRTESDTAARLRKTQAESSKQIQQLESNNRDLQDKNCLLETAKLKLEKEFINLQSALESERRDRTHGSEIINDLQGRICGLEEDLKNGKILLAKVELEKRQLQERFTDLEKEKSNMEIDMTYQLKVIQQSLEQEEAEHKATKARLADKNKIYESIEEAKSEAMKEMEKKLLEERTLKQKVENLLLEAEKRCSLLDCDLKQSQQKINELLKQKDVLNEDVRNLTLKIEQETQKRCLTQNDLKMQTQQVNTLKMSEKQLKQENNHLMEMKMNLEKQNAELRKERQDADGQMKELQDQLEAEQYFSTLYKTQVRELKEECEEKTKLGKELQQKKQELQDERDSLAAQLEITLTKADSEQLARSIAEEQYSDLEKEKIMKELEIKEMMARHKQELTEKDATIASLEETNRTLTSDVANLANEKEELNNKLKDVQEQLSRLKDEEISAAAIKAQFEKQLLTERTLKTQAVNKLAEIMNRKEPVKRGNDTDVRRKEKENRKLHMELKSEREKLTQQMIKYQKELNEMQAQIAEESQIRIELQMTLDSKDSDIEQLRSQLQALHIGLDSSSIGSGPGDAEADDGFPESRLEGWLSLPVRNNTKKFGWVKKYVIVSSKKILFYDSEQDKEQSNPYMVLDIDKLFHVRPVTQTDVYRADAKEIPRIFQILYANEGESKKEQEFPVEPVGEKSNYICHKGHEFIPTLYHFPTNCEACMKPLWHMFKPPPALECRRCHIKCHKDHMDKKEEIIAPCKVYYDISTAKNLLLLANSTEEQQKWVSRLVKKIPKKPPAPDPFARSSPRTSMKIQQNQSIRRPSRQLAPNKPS
T1 sequence (Q13464 whole entry): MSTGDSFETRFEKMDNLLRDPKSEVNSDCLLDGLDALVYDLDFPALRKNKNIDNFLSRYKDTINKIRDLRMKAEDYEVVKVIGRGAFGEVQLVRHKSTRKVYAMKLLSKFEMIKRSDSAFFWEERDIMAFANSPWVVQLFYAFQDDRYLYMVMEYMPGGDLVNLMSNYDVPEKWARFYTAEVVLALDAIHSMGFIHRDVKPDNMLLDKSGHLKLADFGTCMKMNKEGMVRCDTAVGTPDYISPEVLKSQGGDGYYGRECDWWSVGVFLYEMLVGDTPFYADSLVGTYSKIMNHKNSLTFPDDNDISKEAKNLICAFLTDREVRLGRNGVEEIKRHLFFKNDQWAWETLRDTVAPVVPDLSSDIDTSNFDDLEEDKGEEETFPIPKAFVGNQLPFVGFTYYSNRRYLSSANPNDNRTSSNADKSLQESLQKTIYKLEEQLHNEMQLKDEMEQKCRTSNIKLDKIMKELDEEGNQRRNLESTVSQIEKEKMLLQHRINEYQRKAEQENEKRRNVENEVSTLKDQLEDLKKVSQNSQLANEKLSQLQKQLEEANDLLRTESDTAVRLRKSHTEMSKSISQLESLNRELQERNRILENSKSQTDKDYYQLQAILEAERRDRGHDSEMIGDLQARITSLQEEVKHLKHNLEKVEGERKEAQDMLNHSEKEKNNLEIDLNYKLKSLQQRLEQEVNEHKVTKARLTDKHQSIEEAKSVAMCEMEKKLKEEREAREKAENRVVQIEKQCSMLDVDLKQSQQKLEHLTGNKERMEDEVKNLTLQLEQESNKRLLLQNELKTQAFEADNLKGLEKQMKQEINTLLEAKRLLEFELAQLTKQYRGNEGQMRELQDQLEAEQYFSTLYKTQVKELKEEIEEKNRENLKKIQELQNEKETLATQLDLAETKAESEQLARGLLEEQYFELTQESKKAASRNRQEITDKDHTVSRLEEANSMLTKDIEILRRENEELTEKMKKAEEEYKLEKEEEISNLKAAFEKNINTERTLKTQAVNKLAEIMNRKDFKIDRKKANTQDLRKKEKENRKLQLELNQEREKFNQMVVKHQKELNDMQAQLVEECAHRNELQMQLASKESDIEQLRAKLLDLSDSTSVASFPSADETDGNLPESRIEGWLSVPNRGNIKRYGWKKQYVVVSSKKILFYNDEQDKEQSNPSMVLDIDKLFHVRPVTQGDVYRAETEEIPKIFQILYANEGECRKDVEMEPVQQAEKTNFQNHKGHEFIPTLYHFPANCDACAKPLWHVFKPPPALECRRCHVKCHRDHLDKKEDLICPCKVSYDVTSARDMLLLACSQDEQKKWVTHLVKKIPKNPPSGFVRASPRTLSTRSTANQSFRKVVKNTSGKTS

Ki (ROCK1 [1]): 3 to 30 nM
Ki (ROCK2 [2]): 3 to 30 nM
Ki (ROCK1 [3]): ≤ 3 nM
Ki (ROCK2 [4]): ≤ 3 nM
Ratio (PKA/ROCK2) (PKA): *** (ratio≥10)
Compound: O=C(NCCN1CCOCC1)c1cccc(CNc2ncc(-c3ccncc3)c3c2CCO3)c1 [Example 28, N-(2-morpholinoethyl)-3-(((7-(pyridin-4-yl)-2,3-dihydrofuro[3,2-c]pyridin-4-yl)amino)methyl)benzamide]
